{"source": "paper PMC5944968", "about": "“A multi-chamber microfluidic intestinal barrier model using Caco-2 cells for drug transport studies” (PLoS ONE, 2018)", "key": {"P-gp": {"system": "P-gp", "assay": "Rh 123 bidirectional permeability / P-gp efflux across Caco-2 monolayers in microfluidic device", "format": "in vitro ADME", "conditions": "human, day 10 of cell culture; for Papp at 10 μM: Caco-2, 10 μM Rh 123, microfluidic device, n = 3", "experimental": "Before carrying out the Rh 123 studies, buffer^+ was flowed to both the upper and lower channels for 1 hr. Following that Rh 123 (Sigma-Aldrich, Denmark) prepared in buffer^+ to a concentration of 10 μM was flowed to the basolateral side. 200μl of buffer^+ was added to each waste reservoirs. At each 15min interval, 150 μl was removed from the respective waste reservoirs with replacement of 150μl of buffer^+. Studies were carried out in triplicates.\n(§1) The Caco-2 translocation of peptide, [^3H]mannitol or Rh 123 over Caco-2 layers is expressed as the apparent permeability (Papp), given by: Papp=dQ/dt1/AC0 (2) Where dQ/dt is the steady-state flux across the cell layer (pmol/s), A is the surface area (1.12 cm^2 for Transwell, 0.1 cm^2 for microfluidic), and C0 is the initial sample concentration.\nFor the P-gp studies, the collected samples were analyzed for Rh 123 content using a fluorescence plate reader with excitation/emission of 485/546nm, based on standard curves prepared from test solutions. The efflux ratio of P-gp was determined by: effluxratio=Papp(Basal→Apical)/Papp(Apical→Basal) (4)"}, "Caco-2 monolayers [1]": {"system": "Caco-2 monolayers", "assay": "TEER of Caco-2 monolayers in Transwell inserts after permeation enhancer", "format": "cell-based, Human", "conditions": "recovering to normal levels within 24h in fresh medium", "experimental": "TEER was measured in Transwell inserts with Millicell ERS-2 chopstick Silver/SilverChloride (Ag/AgCl) electrodes (Millipore, USA), and calculated via Eq 1 (see below). […] Sigma, Denmark), insulin (Novo Nordisk, Denmark) and tetradecyl-β-D-Maltoside (TDM; Sigma, Denmark) were all prepared using buffer^+ as the diluent. Buffer^+ was prepared by mixing Hank’s Buffered Saline solution (HBSS; Gibco, Denmark), 0.1% (wt/vol) OVA (ovalbumin; from chicken egg white, Sigma, Denmark) and 10 mM HEPES (HEPES; Sigma, Denmark) at pH 7.4. […] The gentle shaking was to ensure there was little unstirred diffusion layers of fluid in the basolateral region. […] PerkinElmer), after mixing with scintillation fluid (Microscint-40; PerkinElmer), along with a peptide and FD4 content. After the experiments, the cells were washed twice with buffer^+ and replenished with medium for 24 hour recovery. In the microfluidic system, similar to the Transwell studies, before the start of experiment, the DMEM was replaced with buffer^+. Buffer^+ was flowed into the system for 1 hr. Subsequently, the buffer was changed to the test solutions in the top fluidic layer. Flow rate was set at 3 μl/min (in both the upper and lower layers). In the collection reservoirs of the basolateral chambers, 200 μl of buffer was added to each of the collection reservoirs. […]"}, "Caco-2 monolayers [2]": {"system": "Caco-2 monolayers", "assay": "TEER of Caco-2 monolayers in microfluidic device after permeation enhancer", "format": "cell-based, Human", "experimental": "TEER measurements (Ω) of the Caco-2 cells cultured in the microfluidic device were obtained by coupling the connecting wires of the electrodes to a multimeter (Keithley, USA) using alligator clips. Each chamber contained two sets of top electrodes and two sets of bottom electrodes. Each time the TEER values were recorded, only one top electrode and one bottom electrode are connected to the multimeter. Four different configurations of TEER values were recorded, averaged to calculate the final TEER values measured across the microchamber.\nThe final TEER values (Ω cm^2) were determined by subtracting the baseline measurement in the absence of cells (Rbaseline) from the read out (R1) and multiplying with the area of cell culture (Ao, 1.12 cm^2 for Transwell and 0.1 cm^2 for the microfluidic device) as shown in Eq 1.\n(§2) Buffer^+ was prepared by mixing Hank’s Buffered Saline solution (HBSS; Gibco, Denmark), 0.1% (wt/vol) OVA (ovalbumin; from chicken egg white, Sigma, Denmark) and 10 mM HEPES (HEPES; Sigma, Denmark) at pH 7.4.\nTo validate the accuracy and dynamic span of TEER values acquired from the electrodes on the microfluidic chip, a permeation enhancer, tetradecyl-β-D-maltoside (TDM), was introduced to the Caco-2 monolayers for two hours. The concentration of TDM used in the earlier reported studies is expected to cause a transient disruption of the Caco-2 monolayer integrity, while causing minimal cell death, which is reversible after 24 hours in fresh cell culture medium."}, "Caco-2 monolayers [3]": {"system": "Caco-2 monolayers", "experimental": "as §2, §1"}}, "note": "Where two headings read alike, the source gives them in different places."}
{"smiles": "COC(=O)c1ccccc1-c1c2ccc(=N)cc-2oc2cc(N)ccc12", "note": "[Rh 123, Rhodamine 123]", "values": [{"measurement": "Papp at 10 μM", "setting": "P-gp; read-out: Papp(apical → basal)", "value": "~1.03", "unit": "×10⁻⁶ cm/s"}, {"measurement": "Papp at 10 μM", "setting": "P-gp; read-out: Papp(basal → apical)", "value": "~11.2", "unit": "×10⁻⁶ cm/s"}, {"measurement": "efflux ratio at 10 μM", "setting": "P-gp; Caco-2, microfluidic device, read-out: efflux ratio Papp(Basal→Apical)/Papp(Apical→Basal)", "value": "~10.8"}]}
{"smiles": "CCCCCCCCCCCCCCO[C@@H]1O[C@H](CO)[C@@H](O[C@H]2O[C@H](CO)[C@@H](O)[C@H](O)[C@H]2O)[C@H](O)[C@H]1O", "note": "[TDM, tetradecyl-β-D-maltoside]", "values": [{"measurement": "TEER change following TDM addition", "setting": "Caco-2 monolayers [1]", "value": "reversibly decreased"}, {"measurement": "TEER in the presence of TDM, % of initial values", "setting": "Caco-2 monolayers [2]; TDM for two hours", "value": 21, "unit": "%"}, {"measurement": "TEER recovery, % of initial values", "setting": "Caco-2 monolayers [2]; after 24 hours of continuous perfusion with cell culture medium", "value": 90, "unit": "%"}, {"measurement": "TEER change following TDM addition", "setting": "Caco-2 monolayers [2]; recovering to normal levels within 24h in fresh medium", "value": "reversibly decreased"}]}
{"smiles": "OC[C@@H](O)[C@@H](O)[C@H](O)[C@H](O)CO", "note": "[mannitol]", "values": [{"measurement": "Papp in microfluidic chip compared to static Transwell cultures", "setting": "Caco-2 monolayers [3]", "value": "slightly higher (not significant)"}]}
